Source: patent publication US20190298722A1, “USE OF AN INHIBITOR OF THE DE NOVO SYNTHESIS OF PURINES, IN THE TREATMENT OF ADENYLOSUCCINATE LYASE DEFICIENCY” (ASSISTANCE PUBLIQUE-HOPITAUX DE PARIS, priority 2016, published 2019)

System: patients with ADSL deficiency
Test: Psychoeducational Profile (PEP3) developmental assessment during allopurinol treatment
Format: in vivo, human
Method: Clinical characterization of the patients was carried out before starting treatment (T1) in accordance with the ICD 10 classification, using standardized tools: • A semi-structured interview by means of the Autism Diagnostic Interview (ADI-R): this is a semi-structured interview intended to classify symptoms reported by parents in the domain of communication, social interaction, restricted and stereotyped behaviours or sensory issues. Scores are established for the current period and, if necessary, for the period when the difficulties were most serious, between the ages of 4 and 5 years. A score is established for each of the three domains based on responses provided by the parents and the judgement of the interviewer. Scores above the thresholds in the 3 domains support a diagnosis of autism, and in one or two domains support a diagnosis of a pervasive developmental disorder. Scores below the thresholds in the 3 domains make it possible to rule out diagnosis of an autism spectrum disorder if the ADI-R results converge with the clinical assessment of the child. • A semi-structured interview using the Vineland 2 scale: this is a semi-structured interview which makes it possible to assess the adaptive skills of the child in the domains of communication, daily life, social skills and motor skills. From the description of their child's daily living skills, equivalent developmental ages and standardized scores are calculated, making it possible to describe the developmental and adaptive profile of the child. • A developmental assessment using the Psychoeducational Profile (PEP 3): this is a direct assessment of the skills of the child in several domains of their development, particularly suited to children who display a developmental disability. Six domains of development are assessed: verbal and preverbal cognition (VPC), expressive language (EL), receptive language (RL), gross motor skills (GM), fine motor skills (FM) and visual-motor imitation (VMI). The results are expressed in terms of equivalent developmental age and emerging score, when the exercises are partially completed. The number of emerging skills, or the difference between the actual ages and the emerging scores, are evidence of the development potential of the children. • The Conners scale: this is an assessment scale intended to quantify the symptoms of inattentiveness, agitation, impulsiveness, anxiety, somatization, behavioural difficulties and learning difficulties. There are several versions of the questionnaire, one for parents, the other for teachers or professionals. The scoring makes it possible to obtain an overall standardized score, considered to be significant when it is greater than 1.5.
Clinical re-assessments were carried out 6 months and one year after treatment with allopurinol and compared to the first assessment in the absence of treatment with allopurinol. They comprised: • At 6 months: scoring of the Vineland and Conners scales • At 12 months: scoring of the Vineland and Conners scales and completion of PEP-3.
Developmental progress was measured by means of developmental ages on the PEP3 scale before treatment (T1) and after a year of treatment (T3).

[1] = Patient 1, T3 (12 months), T1 1.7
[2] = Patient 2, T3 (12 months), T1 2.3
[3] = Patient 3, T3 (12 months), T1 1.4

## O=c1ncnc2[nH][nH]cc1-2 [allopurinol, 1,2-dihydro-4H-pyrazolo[3,4-d]pyrimidin-4-one]
3 patients, during treatment, rate remains slow with respect to chronological age
  equivalent developmental ages: progression
[1]
  PEP3 developmental age, EL (expressive language): 1.8
  PEP3 developmental age, RL (receptive language): 2.3
Patient 1, T3 (12 months), T1 2.2
  PEP3 developmental age, GM: 2.8
Patient 1, T3 (12 months), T1 2.5
  PEP3 developmental age, FM: 2.8
Patient 1, T3 (12 months), T1 2.6, figures read as years.months per Table 2
  PEP3 developmental age, VPC (verbal and preverbal cognition): 3
Patient 1, T3 (12 months), T1 2.8
  PEP3 developmental age, VMI (visual-motor imitation): 3.3
Patient 2, T3 (12 months), T1 1.3
  PEP3 developmental age, EL (expressive language): 1.7
Patient 2, T3 (12 months), T1 1.8
  PEP3 developmental age, RL (receptive language): 2.7
Patient 2, T3 (12 months), T1 1.9
  PEP3 developmental age, GM: 3.3
[2]
  PEP3 developmental age, FM: 4.0
  PEP3 developmental age, VPC (verbal and preverbal cognition): 2.3
Patient 2, T3 (12 months), T1 6
  PEP3 developmental age, VMI (visual-motor imitation): 6.0
[3]
  PEP3 developmental age, EL (expressive language): 2.3
  PEP3 developmental age, GM: 3.4
Patient 3, T3 (12 months), T1 1.5
  PEP3 developmental age, RL (receptive language): 2
Patient 3, T3 (12 months), T1 1.6
  PEP3 developmental age, VPC (verbal and preverbal cognition): 2.4
Patient 3, T3 (12 months), T1 2
  PEP3 developmental age, FM: 3.6
Patient 3, T3 (12 months), T1 2.1
  PEP3 developmental age, VMI (visual-motor imitation): 3.3
Patient P2, T1 to T3
  PEP3 developmental age, fine motor skills and receptive language: approximately a year
  PEP3 developmental age, gross motor skills: improvement of more than a year
Patient P3, T1 to T3
  PEP3 developmental level, expressive language and preverbal and verbal cognition: gain of more than a year
